Measured values from patent US20150126464A1, “THERAPEUTIC DRUG AND THERAPEUTIC METHOD FOR NEUROLOGICAL DISEASES INCLUDING ALZHEIMER'S DISEASE ASSOCIATED WITH 1,25D3-MARRS” (priority 2013, published 2015).

Legend:
5XFAD mice = assay: Open field locomotion test in 5XFAD mice; type: in vivo, mouse; conditions: i.p. 20 days, diosgenin 10 μmol/kg, memantine hydrochloride 200 μmol/kg/day, among the four groups
Experimental: Diosgenin was dissolved in dimethyl sulfoxide (DMSO) at 10 times the final concentration to give a stock solution. The stock solution was diluted in physiological saline to the final concentration immediately before treatment. The diosgenin solution was intraperitoneally administered to 5XFAD mice once a day (10 μmol/kg=4.14 mg/kg) for 20 days. On the last day of administration (Day 20), each mouse was housed in a separate open-field box made of polyvinyl chloride (33 cm×[…]; height: 26.5 cm) and habituated to the environment for 10 min.
For each mouse of Example 1, Comparative Examples 1 and 2, and Reference Example 1, the path during the 10-minute habituation was tracked using a digital camera system. The distance each mouse traveled during the 10 minutes was analyzed as locomotion activity with EthoVision 3.0 (Noldus, Wageningen, The Netherlands). The next day, a novel object recognition test was performed as described in Joyashiki, E. et al., Int J Neurosci, 121, 181-190, 2011 and Tohda, C. et al., Int J Neurosci, 121, 641-648, 2011, written by the inventors and others. Testing was carried out in a dimly illuminated room. […] In the present invention, the ratio (%) of the exploration time for the novel object to the total exploration time was calculated as an exploration preferential index. […]

1,25D3-MARRS [1] = target: T1, 1,25D3-MARRS (Rattus norvegicus, UniProt P11598); assay: Detection of luminescence resulting from 1,25D3-MARRS binding (cell surface-binding DHVD3); conditions: diosgenin 0.1 μM or 10 μM added with DHVD3 0.1 μM, 10 minutes
T1 construct: endogenous in cells; host or cells: primary cultured rat cortical neurons (SD, E17)
T1 sequence (P11598 25-505): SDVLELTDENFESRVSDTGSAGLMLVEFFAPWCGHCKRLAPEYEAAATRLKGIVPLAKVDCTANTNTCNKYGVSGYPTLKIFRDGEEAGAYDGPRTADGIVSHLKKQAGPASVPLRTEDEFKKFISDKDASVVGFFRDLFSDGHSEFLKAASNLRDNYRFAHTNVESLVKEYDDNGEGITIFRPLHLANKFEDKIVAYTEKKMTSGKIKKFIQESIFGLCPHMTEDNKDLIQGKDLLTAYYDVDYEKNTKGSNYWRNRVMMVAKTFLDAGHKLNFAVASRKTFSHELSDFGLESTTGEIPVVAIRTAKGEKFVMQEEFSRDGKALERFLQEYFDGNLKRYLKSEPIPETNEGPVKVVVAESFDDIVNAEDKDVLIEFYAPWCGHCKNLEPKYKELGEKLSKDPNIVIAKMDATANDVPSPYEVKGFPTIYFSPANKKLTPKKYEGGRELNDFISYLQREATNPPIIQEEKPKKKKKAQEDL
Description: Embryos were removed from pregnant Sprague-Dawley rats (Japan SLC, Shizuoka, Japan) at 17 days of gestation. The cortices were dissected, and the dura mater was removed.
Primary cultured cortical neurons (SD, E17) were harvested into a 96-well white plate at a density of 0.5×10^5 cells/well. […] Horse radish peroxidase-conjugated goat anti-mouse IgG (1:2000) was used as a secondary antibody. The chemiluminescence of the antigen-antibody complex was detected using a GENios multi-plate reader (Tecan, Mannedorf, Zurich, Switzerland).

1,25D3-MARRS [2] = target: T2, 1,25D3-MARRS (Mus musculus, UniProt P27773); assay: Identification of the target protein for diosgenin (thermolysin proteolysis of lysate, LC/MS/MS); type: binding; conditions: mouse cortical neuron lysate, band thicker than in vehicle-treated lysate
T2 construct: endogenous in cells; host or cells: mouse cortical neuron primary culture (ddY, E14), cell lysate
T2 sequence (P27773 25-505): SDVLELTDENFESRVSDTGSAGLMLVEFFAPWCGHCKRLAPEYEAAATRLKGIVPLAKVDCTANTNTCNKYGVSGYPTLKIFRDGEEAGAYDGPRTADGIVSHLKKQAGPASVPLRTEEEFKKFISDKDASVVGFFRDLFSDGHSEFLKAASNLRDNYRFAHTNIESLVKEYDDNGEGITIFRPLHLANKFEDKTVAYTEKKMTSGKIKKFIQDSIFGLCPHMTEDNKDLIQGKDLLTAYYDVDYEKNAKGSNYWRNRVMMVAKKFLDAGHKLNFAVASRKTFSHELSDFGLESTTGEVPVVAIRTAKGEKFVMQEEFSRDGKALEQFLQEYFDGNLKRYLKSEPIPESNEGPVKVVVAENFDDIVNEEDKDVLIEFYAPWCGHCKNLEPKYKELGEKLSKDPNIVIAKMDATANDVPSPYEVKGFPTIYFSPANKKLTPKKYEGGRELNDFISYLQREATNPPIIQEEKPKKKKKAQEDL
Experimental: A mouse cortical neuron primary culture (ddY, E14) was maintained for 24 hours without any drug treatment. The cells were lysed with M-PER (Thermo Scientific) supplemented with protease and phosphatase inhibitors. After centrifugation (20,000×g) for 15 minutes, the protein concentration of the lysates was determined using Quick Start (Bio-Rad Laboratories, Hercules, Calif., USA). The cell lysate (5.6 μg each) was added to 2 μL of a vehicle solution of 10 mM diosgenin and incubated at 4° C. for 30 minutes. The mixture was proteolyzed using 7.5 μg of thermolysin in a reaction buffer [50 mM Tris-HCl (pH 8.0), 50 mM NaCl, and 10 mM CaCl2] at room temperature for 10 minutes. To stop the proteolysis, 0.5 M EDTA (pH 8.0) was added to each sample at a ratio of 1:10. The samples were then mixed well and placed on ice. The reaction samples were electrophoresed using a 5 to 20% real gel plate (Bio Craft, Tokyo, Japan). The separated proteins were stained using a negative gel stain MS kit (Wako). The bands in the diosgenin-treated lysate that were thicker than those in the vehicle-treated lysate were cut out and prepared for mass spectrometry analysis. After alkylation using iodoacetamide and in-gel digestion by trypsin, the supernatants were analyzed by nano-LC/MS/MS using LTQ Orbitrap XL (ThermoFisher). […]

Q: How did the “traveling speed and distance in open field locomotion test” value (5XFAD mice) turn out when `C[C@@H]1CC[C@@]2(OC1)O[C@H]1C[C@H]3[C@@H]4CC=C5C[C@@H](O)CC[C@]5(C)[C@H]4CC[C@]3(C)[C@H]1[C@@H]2C` [diosgenin] was run?
A: no significant differences

Q: And the “immunochemiluminescence intensity of cell surface-bound DHVD3 (replacement of DHVD3)” value (1,25D3-MARRS [1])?
A: remarkably decreased

Q: What about the “direct target protein identified” value (1,25D3-MARRS [2]) of the same compound?
A: direct target protein of diosgenin was 1,25D3-MARRS
